From patent publication US7541368B2, “Pyrazoles as inhibitors of tumor necrosis factor” (Aventis Pharmaceuticals Inc., priority 2003, dated 2009)
Like-named read-outs stand apart in the source and are kept apart here.

Experiments:
[1] = tested on: TNF-alpha release in THP-1 cells; test: LPS-induced TNF-alpha release in THP-1 cells; type: cell-based; conditions: Homo sapiens, THP-1, LPS-stimulated THP-1 cells
How it was run: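 TNF-alpha in supernatants was quantified by sandwich ELISA against a log/log recombinant standard curve (0.125-16 ng/ml). Before this, THP-1 cells (1×10^6 cells/ml, serum-reduced) received compound at 1×10^−9 to 1×10^−6 M in 0.3% DMSO for 1 h, then LPS 20 μg/ml for 18 h.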

Murine p38 = molecular target: T1, Murine p38 (Mus musculus, UniProt P47811); test: Murine p38α standard assay against pre-activated p38 (ATF-2 phosphorylation, DELFIA); type: biochemical; conditions: murine p38, ATF-2 substrate
T1 construct: purchased CalBiochem 506122
Experimental: Compounds of the invention were tested in a conventional assay against pre-activated p38. Murine p38 enzyme activity was determined by measuring the incorporation of the γ-phosphate of ATP into ATF-2.
Human GST-tagged ATF-2 (50 μg/ml) was coated onto 96 well plates. Assay buffer (25 mM Hepes buffer, pH 7.7 containing 25 mM magnesium chloride, 2 mM dithiothreitol, 1 mM sodium orthovanadate and 100 μM ATP) was then added to each well. Compounds were dissolved in DMSO (100%) and added to the assay buffer to give a fmal DMSO concentration of 0.3%. Murine p38 (CalBiochem Catalog # 506122; 40 ng/ml) was then added and the assay continued for 1 hour.
Phosphorylated ATF-2 was quantitated using a rabbit anti-human phospho (threonine 71)-specific ATF-2 primary antibody (Cell Signaling, Catalog # 9221B) followed by a sheep europium N^1-labelled anti-rabbit IgG secondary antibody (Perkin Elmer Life Sciences Catalog # AD0105) and addition of the DELFIA enhancement solution (Perkin Elmer Life Sciences) resulting.
Fluorescence was measured using a Wallac Victor^2 1420 multi-label HTS counter (Perkin Elmer Life Sciences). The results are reported as IC50 values. Compounds were tested over the concentration range of 3×10^−10M to 3>10^−5M.

[2] = molecular target: T2, Inactive N-terminal His6 tagged murine P38 (Mus musculus, UniProt P47811); test: p38 cascade assay (HTRF; inactive p38 activated by MKK-6, ATF-2 phosphorylation); type: biochemical; conditions: inactive p38 preincubated with compound, then MKK-6, ATF-2, ATP; read-out: 50% inhibition in the p38 cascade assay at concentrations within the range
T2 construct: His6 (N); made in house
Experimental: The homogeneous time resolved fluorescence method (HTRF) assay measured the phosphorylation of human activating transcription factor (ATF)-2 protein by P38 following activation by MKK-6 and was run in A384 well plate format. […] MBP-tagged mouse MKK-6 (final concentration 50 nM), GST-tagged ATF-2 (fmal concentration 200 nM) and ATP (final concentration 50 μM) were then added and the incubation continued for 90 min. p38, MKK-6 and ATF-2 were prepared in the Protein Production Group, Aventis Pharmaceuticals. XL665 labeled anti-GST antibody (Cis Bio International) and cryptate labeled anti-pbospho-ATF2 antibody (Cis Bio International) were then added to generate the specific signal proportional to the phosphorylation of the substrate. The close proximity of XL665 labeled anti-GST antibody/phosphorylated GST-ATF2 complex and the cryptate labeled anti-phospho-ATF2 antibody results in a fluorescence transfer from cryptate to XL665. The resulting fluorescence signal was than read on a LJL Acquest set at multi-method mode using a fluorescence filter set (E=360 nm, Em=615/665 nm) with UV dichroic mirror (Integration time: 300000 μs). The results are reported as IC50 values. Compounds were tested over the concentration range of 3×10^−10M to 3×10^−5M.

[3] = tested on: Human HSP27 phosphorylation; test: HSP27 phosphorylation in LPS stimulated THP-1 cells; type: cell-based; conditions: Western blot, read-out: HSP-27
Experimental: The effects of compounds on Heat Shock Protein (HSP)-27 phosphorylation in LPS stimulated THP-1 cells were examined as follows:
THP-1 cells were maintained as described for the TNF-alpha assay (1.1.).
THP-1 cells (1×10 ^6 cells/ml, total volume 1 ml) in culture medium were incubated for one hour (5% CO2, 37° C.) with fresh medium containing compounds (0.0001-30 μM) or vehicle (0.1% DMSO). LPS ([…]) was then added to the cells (except the untreated cell sample) and the incubation continued for a further 20 minutes. Cells were collected, centrifuiged and washed with ice-cold PBS buffer (free of Ca^2+ and Mg^2+). Cell lysates were prepared with 1× lysis buffer (Promega Catalog# E153A) for storage at −20° C.
HSP27 phosphorylation was determined by Western blot-enhanced chemi-luminescence (ECL-Amersham)). Briefly, cell lysates were electrophoresed on 12% Tris-glycine gels and transferred to nitrocellulose membranes. The membranes were then probed with primary rabbit antiphospho-HSP27 (ser82) antibody and secondary anti-rabbit antibody conjugated to horse raddish peroxidase. After addition of the ECL detection reagent, the film was developed and the p-HSP27 immunoreactivity quantified by densitometry.

[4] = TNF-alpha by ELISA, read-out: THP 1 cells
[5] = read-out: 50% inhibition in the LPS-induced TNF-alpha release in THP-1 cells assay at concentrations within the range

T1 sequence (P47811 whole entry): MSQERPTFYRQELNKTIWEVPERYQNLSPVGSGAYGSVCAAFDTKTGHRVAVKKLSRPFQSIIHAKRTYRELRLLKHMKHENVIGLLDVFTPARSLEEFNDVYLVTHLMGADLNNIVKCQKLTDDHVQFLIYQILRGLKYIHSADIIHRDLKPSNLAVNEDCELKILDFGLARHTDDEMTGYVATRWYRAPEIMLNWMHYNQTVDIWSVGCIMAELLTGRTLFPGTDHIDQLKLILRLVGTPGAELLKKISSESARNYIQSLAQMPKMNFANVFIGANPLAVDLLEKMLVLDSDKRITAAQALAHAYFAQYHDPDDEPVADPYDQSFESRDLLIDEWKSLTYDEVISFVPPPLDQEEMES
T2 sequence (P47811 whole entry): as above

SMILES | IC50 [1, 4] [nM] | IC50 [1, 5] [nM] | IC50 (Murine p38) [nM] | IC50 [2] [nM] | IC50 [3] [nM]
COc1ccc(C(=O)N2C3CCC2CC(Cc2ccc(NC(=O)Nc4cc(C(C)(C)C)nn4-c4ccc(C)cc4)cc2)C3)c(OC)c1 (stereo not shown) [Example 4, 1-(5-tert-Butyl-2-p-tolyl-2H-pyrazol-3-yl)-3-{4-[8-(2,4-dimethoxy-benzoyl)-8-aza-bicyclo[3.2.1]oct-3-ylmethyl]-phenyl}-urea] | 79.5 |  | 1170 |  | 
COc1ccc(C(=O)N2CCC(Cc3ccccc3NC(=O)Nc3cc(C(C)(C)C)nn3-c3ccc(C)cc3)CC2)c(OC)c1 [Compound A1113, 1-(5-tert-butyl-2-p-tolyl-2H-pyrazol-3-yl)-3-{2-[1-(2,4-dimethoxy-benzoyl)-piperidin-4-ylmethyl]-phenyl}-urea] | 83 | 10 to 500 | 500 |  | 
COc1ccc(C(=O)N2C3CCC2CC(Cc2ccccc2NC(=O)Nc2cc(C(C)(C)C)nn2-c2ccc(C)cc2)C3)c(OC)c1 (stereo not shown) [Example 5, 1-(5-tert-butyl-2-p-tolyl-2H-pyrazol-3-yl)-3-{2-[8-(2,4-dimethoxy-benzoyl)-8-aza-bicyclo[3.2.1]oct-3-ylmethyl]-phenyl}-urea] | 5110 |  | 6750 |  | 
COc1ccc(C(=O)N2CCC(Cc3cccc(NC(=O)Nc4cc(C(C)(C)C)nn4-c4ccc(C)cc4)c3)CC2)c(OC)c1 [Compound A27, 1-(5-tert-butyl-2-p-tolyl-2H-pyrazol-3-yl)-3-{3-[1-(2,4-dimethoxy-benzoyl)-piperidin-4-ylmethyl]-phenyl}-urea] | 10.6 | 10 to 500 | 216 | 10 to 100 | 27
COCC(=O)N1CCC(Cc2cccc(NC(=O)Nc3cc(C(C)(C)C)nn3-c3ccc(C)cc3)c2)CC1 [Compound A173, 1-(5-tert-Butyl-2-p-tolyl-2H-pyrazol-3-yl)-3-{3-[1-(2-methoxy-acetyl)-piperidin-4-ylmethyl]-phenyl}-urea] |  | 10 to 500 |  | 10 to 100 | 
Cc1ccc(-n2nc(C(C)(C)C)cc2NC(=O)Nc2cccc(CC3CCN(C(=O)c4csc(-c5ccncc5)n4)CC3)c2)cc1 [Compound A34, 1-(5-tert-Butyl-2-p-tolyl-2H-pyrazol-3-yl)-3-{3-[1-(2-pyridin-4-yl-thiazole-4-carbonyl)-piperidin-4-ylmethyl]-phenyl}-urea] |  | 10 to 500 |  | 10 to 100 | 

Second part, the compound after the results:

IC50 [1, 4] [nM] | IC50 [1, 5] [nM] | IC50 (Murine p38) [nM] | IC50 [2] [nM] | IC50 [3] [nM] | SMILES
15.5 | 10 to 500 | 230 | 10 to 100 |  | COc1ccc(C(=O)N2CCC(Cc3ccc(NC(=O)Nc4cc(C(C)(C)C)nn4-c4ccc(C)cc4)cc3)CC2)c(OC)c1 [Compound A218, 1-(5-tert-Butyl-2-p-tolyl-2H-pyrazol-3-yl)-3-{4-[1-(2,4-dimethoxy-benzoyl)-piperidin-4-ylmethyl]-phenyl}-urea]
 | 10 to 500 |  | 10 to 100 |  | Cc1ccc(-n2nc(C(C)(C)C)cc2NC(=O)Nc2ccc(CC3CCN(C(=O)c4sc(C)nc4C)CC3)cc2)cc1 [Compound A219, 1-(5-tert-Butyl-2-p-tolyl-2H-pyrazol-3-yl)-3-{4-[1-(2,4-dimethyl-thiazole-5-carbonyl)-piperidin-4-ylmethyl]-phenyl}-urea]
 | 10 to 500 |  | 10 to 100 |  | Cc1ccc(-n2nc(C(C)(C)C)cc2NC(=O)Nc2ccc(CC3CCN(C(=O)c4cnccn4)CC3)cc2)cc1 [Compound A256, 1-(5-tert-Butyl-2-p-tolyl-2H-pyrazol-3-yl)-3-{4-[1-(pyrazine-2-carbonyl)-piperidin-4-ylmethyl]-phenyl}-urea]
 | 10 to 500 |  | 10 to 100 |  | Cc1ccc(-n2nc(C(C)(C)C)cc2NC(=O)Nc2ccc(CC3CCN(C(=O)c4oc5ccccc5c4C)CC3)cc2)cc1 [Compound A290, 1-(5-tert-Butyl-2-p-tolyl-2H-pyrazol-3-yl)-3-{4-[1-(3-methyl-benzofuran-2-carbonyl)-piperidin-4-ylmethyl]-phenyl}-urea]
 | 10 to 500 |  | 10 to 100 |  | Cc1ccc(-n2nc(C(C)(C)C)cc2NC(=O)Nc2ccc(CC3CCN(C(=O)c4cccc(C)n4)CC3)cc2)cc1 [Compound A334, 1-(5-tert-Butyl-2-p-tolyl-2H-pyrazol-3-yl)-3-{4-[1-(6-methyl-pyridine-2-carbonyl)-piperidin-4-ylmethyl]-phenyl}-urea]
